Test results published in patent EP4810040A2, “INHIBITORS OF APOL1 AND METHODS OF USING SAME” (priority 2020, dated 2022).
Like-named read-outs stand apart in the source and are kept apart here.

Molecular target: T1, APOL1 G1 (Homo sapiens, UniProt O14791, I384M/S342G)
T1 sequence (O14791 28-398 S342G/I384M): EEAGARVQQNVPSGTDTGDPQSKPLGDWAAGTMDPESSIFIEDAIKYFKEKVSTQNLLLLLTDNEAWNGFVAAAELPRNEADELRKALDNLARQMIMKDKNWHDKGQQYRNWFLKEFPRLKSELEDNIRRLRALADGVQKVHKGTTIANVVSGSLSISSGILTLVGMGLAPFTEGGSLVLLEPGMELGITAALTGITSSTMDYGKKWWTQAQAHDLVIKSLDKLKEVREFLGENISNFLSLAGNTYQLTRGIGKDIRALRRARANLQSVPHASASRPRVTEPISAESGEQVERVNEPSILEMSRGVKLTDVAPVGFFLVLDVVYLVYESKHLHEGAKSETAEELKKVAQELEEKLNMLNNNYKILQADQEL
Experiment: MultiTox-Fluor Multiplex Cytotoxicity Assay, tet-inducible APOL1 G1 T-REx-HEK293 cells
Type: cell-based
Design: expressed in transfected cells; host or cells: T-REx HEK293, clone G1 DC3.25 (pAAVS1-Puro-APOL1 G1)
Conditions: for IC90: read-out: Multi-Tox Assay IC90; for Emax: read-out: Multi-Tox Assay Max Activity (%)
Protocol: The MultiTox-Fluor Multiplex Cytotoxicity Assay is a single-reagent-addition, homogeneous, fluorescence assay that measures the number of live and dead cells simultaneously in culture wells. The assay measures cell viability and cytotoxicity by detecting two distinct protease activities. The live-cell protease activity is restricted to intact viable cells and is measured using a fluorogenic, cell-permeant peptide glycyl-phenylalanylamino fluorocoumarin (GF-AFC) substrate. The substrate enters intact cells, where it is cleaved to generate a fluorescent signal proportional to the number of living cells. […] A second, cell-impermeant, fluorogenic peptide substrate (bis-AAF-R110 Substrate) is used to measure dead-cell protease that has been released from cells that have lost membrane integrity. A ratio of dead to live cells is used to normalize data.
Briefly, the tet-inducible transgenic APOL1 T-REx-HEK293 cell lines were incubated with 50 ng/mL tet to induce APOL1 in the presence of 3-(2-(4-fluorophenyl)-1H-indol-3-yl)-N-((3S,4R)-4-hydroxy-2-oxopyrrolidin-3-yl)propenamide at […], 0.0045, 0.0015, 0.0005 µM in duplicate for 24 hours in a humidified 37°C incubator. The MultiTox reagent was added to each well and placed back in the incubator for an additional 30 minutes. The plate was read on the EnVision plate reader. A ratio of dead to live cells was used to normalize, and data was imported, analyzed and fit using Genedata Screener (Basel, Switzerland) software. Data was normalized using percent of control, no tet (100% viability), and 50 ng/mL tet treated (0% viability),and fit using Smart Fit. The reagents, methods, and complete protocol for the MultiTox assay are described below. Table 42. Reagents Used in the Multi-Tox Assay
Human embryonic kidney (HEK293) cell lines containing a tet-inducible expression system (T-REx™; Invitrogen, Carlsbad, CA) and Adeno-associated virus site 1 pAA VS1-Puro-APOL1 G0 or pAAVS1-Puro-APOL1 G1 or pAAVS1-Puro-APOL1 G2 Clones G0 DC2.13, G1 DC3.25, and G2 DC4.44 were grown in a T-225 flask at ~90% confluency in cell growth media (DMEM, 10% Tet-free FBS, 2 mM L-glutamine, 100 Units/mL penicillin-streptomycin, 5 µg/mL blasticidin S HCl, 1 µg/mL puromycin dihydrochloride). Cells were washed with DPBS and then trypsinized to dissociate from the flask. Media was used to quench the trypsin, cells were then pelleted at 200g and resuspended in fresh cell assay media (DMEM, 2% Tet-free FBS, 2 mM L-glutamine, 100 Units/mL penicillin-streptomycin). Cells were counted and diluted to 1.17 x 10^6 cells/mL. 20 µL of cells (23,400/well) were dispensed to every well of a 384-well Poly-D-Lysine coated plate using the Multidrop dispenser. The plates were then incubated at room temperature for one hour.
Tetracycline is needed to induce APOL1 expression. 1 mg/mL tet stock in water was diluted to 250 ng/mL (5X) in cell assay media. 60 µL of cell assay media (no tet control) was dispensed in columns 1 and 24, and 60 µL of 5X tet was dispensed in 384-PP-round bottom plate in columns 2 to 23 with the Multidrop dispenser.
Assay ready plates from the Global Compound Archive were ordered using template 384_APOL1Cell_DR10n2_50uM_v3. Compounds were dispensed at 200 nL in DMSO. The final top concentration was 10 µM with a 10 point 3-fold dilution in duplicate in the MultiTox assay.
20 µL were transferred from the 5X tet plate to the ARP and mixed, then 5 µL of 5X tet and the compounds were transferred to the cell plate and mixed using the Bravo. The cell plate was placed in the humidified 37°C 5% CO2 incubator for 24 hours.
The MultiTox-Fluor Multiplex Cytotoxicity Assay was performed in accordance with the manufacturer's protocol. […]

[1] = HEK293, Multi-Tox Assay, APOL1 variant (G0/G1/G2) of the HEK293 cells not given
[2] = Multi-Tox Assay, APOL1 variant not given
[3] = Multi-Tox Assay, APOL1 variant (G0/G1/G2) not stated in Table 46
[4] = Multi-Tox Assay, APOL1 variant not stated in Table 46

SMILES	IC90 [1] [nM]	Multi-Tox Assay Max Activity (%) [2] [%]	further results
Cc1cnc([C@@H]2C[C@]3(C[C@H](C)N2)OCCc2cc(Cl)sc23)o1 (racemic) [Compound 134]	50 to 500	99.2	
C[C@@H]1CC2(C[C@H](C)N1)OCCc1cc(Br)sc12 (single isomer, unassigned) [Compound 197]	50 to 500		Emax [2]: 99%
C[C@H]1C[C@@]2(C[C@@H](c3ccnn3C)N1)OCCc1cc(Cl)sc12 (racemic) [Compound 152]	> 500	98.0	
CC1CC2(CC(c3cnn(CCS(C)(=O)=O)c3)N1)OCCc1sc(C(F)(F)F)cc12 (stereo not drawn) [Compound 9]	50 to 500	100.0	
C[C@H]1C[C@@]2(C[C@@H](c3cn(CCOc4ccccc4F)nn3)N1)OC[C@@H](O)c1cc(Cl)sc12 [Compound 301]	< 50		
C[C@H]1C[C@@]2(C[C@@H](c3cn(Cc4ccc(OC5CCOCC5)cc4)nn3)N1)OC[C@@H](O)c1cc(Cl)sc12 [Compound 266]	50 to 500	100.0	
C[C@H]1C[C@@]2(C[C@@H](c3ccc4cn[nH]c4c3)N1)OCCc1cc(Cl)sc12 (racemic) [Compound 67]	< 50		Emax [2]: 99.7%
C[C@H]1C[C@@]2(C[C@@H](c3cn(CCC(N)=O)nn3)N1)OCC(F)(F)c1cc(Cl)sc12 [Compound 328]	50 to 500	100.0	
C[C@H]1C[C@@]2(C[C@@H](c3ccc(O)c(F)c3)N1)OCCc1cc(Cl)sc12 [Compound 51]	< 50	99.7	
C[C@H]1C[C@@]2(C[C@@H](c3cn(CC4(CO)CC4)nn3)N1)OCC(F)(F)c1cc(Cl)sc12 [Compound 357]	50 to 500		
C[C@H]1C[C@@]2(C[C@@H](c3cn(CCO)nn3)N1)OCC(F)(F)c1cc(Cl)sc12 [Compound 361]			IC90 [3]: 50 to 500 nM; Multi-Tox Assay Max Activity (%) [4]: 98.0%
C[C@H]1C[C@@]2(C[C@@H](c3cn(CCC(C)(C)O)nn3)N1)OCC(F)(F)c1cc(Cl)sc12 [Compound 367]			IC90 [3]: < 50 nM
Cc1noc(C)c1Cn1cc([C@@H]2C[C@]3(C[C@H](C)N2)OC[C@@H](O)c2cc(Cl)sc23)nn1 [Compound 237]	50 to 500		
CCc1cc2c(s1)CCOC21CC(C)NC(c2cn(C)nn2)C1 (single isomer, unassigned) [Compound 4]	< 50		Emax [2]: 99.3%
C[C@H]1C[C@@]2(C[C@@H](c3cnn4c3OCCC4)N1)OCCc1cc(Cl)sc12 (racemic) [Compound 163]	> 500	92.7	
C[C@H]1C[C@@]2(C[C@@H](c3ncnn3C)N1)OCCc1cc(Cl)sc12 (racemic) [Compound 171]	> 500	71.8	

SMILES	IC90 [1] [nM]	Multi-Tox Assay Max Activity (%) [2] [%]	further results
Cc1nccnc1[C@@H]1C[C@]2(C[C@H](C)N1)OCCc1cc(Cl)sc12 (racemic) [Compound 164]	> 500	91.7	
C[C@H]1C[C@@]2(C[C@@H](c3cn(Cc4cccnn4)nn3)N1)OC[C@@H](O)c1cc(Cl)sc12 [Compound 280]	50 to 500		
Cc1nnc(Cn2cc([C@@H]3C[C@]4(C[C@H](C)N3)OCC(F)(F)c3cc(Cl)sc34)nn2)[nH]1 [Compound 339]	50 to 500	97.0	
COCC(O)Cn1cc([C@@H]2C[C@]3(C[C@H](C)N2)OCC(F)(F)c2cc(Cl)sc23)nn1 (stereo partly drawn) [Compound 342]	50 to 500	98.0	
CCOc1ccc([C@@H]2C[C@]3(C[C@H](C)N2)OCCc2cc(Cl)sc23)cc1O (racemic) [Compound 107]	< 50	99.7	
C[C@H]1C[C@@]2(C[C@@H](c3cn(CC4(F)CCOCC4)nn3)N1)OC[C@@H](O)c1cc(Cl)sc12 [Compound 289]	> 500	83.0	
CCOc1ccc([C@@H]2C[C@]3(C[C@H](C)N2)OCCc2cc(Cl)sc23)nc1 (racemic) [Compound 69]	< 50		Emax [2]: 99.7%
CC1CC2(CC(C3CC3)N1)OCCc1cc(Cl)sc12 (mixture of isomers) [Compound 217]	< 50		Emax [2]: 99.2%
C[C@H]1C[C@@]2(C[C@@H](c3cc(C4CCOCC4)[nH]n3)N1)OCCc1cc(Cl)sc12 [Compound 114]	50 to 500	99.7	
C[C@H]1C[C@@]2(C[C@@H](c3cn(C)nn3)N1)OCC(C)(O)c1cc(C(F)(F)F)sc12 (stereo partly drawn) [Compound 384, (2'S,6'S,7S)-2',4-dimethyl-6'-(1-methyltriazol-4-yl)-2-(trifluoromethyl)spiro[5H-thieno[2,3-c]pyran-7,4'-piperidine]-4-ol]			IC90 [3]: < 50 nM; Emax [4]: 100%
C[C@H]1C[C@@]2(C[C@@H](c3cn(Cc4cncs4)nn3)N1)OC[C@@H](O)c1cc(Cl)sc12 [Compound 248]	50 to 500	101.0	
CC1CC2(CC(C3CCOCC3)N1)OCCc1cc(Cl)sc12 (mixture of isomers) [Compound 216]	> 500		Emax [2]: 97.7%
CCC(O)Cn1cc([C@@H]2C[C@]3(C[C@H](C)N2)OCCc2cc(Cl)sc23)nn1 (mixture of isomers) [Compound 111]	50 to 500	99.3	
Cc1ccc(Cn2cc([C@@H]3C[C@]4(C[C@H](C)N3)OC[C@@H](O)c3cc(Cl)sc34)nn2)nc1 [Compound 294]	50 to 500	100.0	
Cc1nc(Cn2cc([C@@H]3C[C@]4(C[C@H](C)N3)OC[C@@H](O)c3cc(Cl)sc34)nn2)oc1C [Compound 297]	50 to 500		
Cc1cc([C@@H]2C[C@]3(C[C@H](C)N2)OCCc2cc(Cl)sc23)ccc1O (racemic) [Compound 108]	50 to 500		
